The results in this text go back to patent publication US20190327974A1, “SYNERGISTS FOR IMPROVED PESTICIDES” (priority 2017, published 2019).

Each structure is given as a SMILES string. Numbering of substitutions follows the chain as printed. Marks after values point to notes of the source that are not given here.

In assay [1] the test system is Lucilia cuprina larvae, laboratory drug-susceptible strain LS. Description: Lucilia cuprina larval bioassay (pupation rate), laboratory strain. It is filed as in vivo. Particulars: laboratory (LS) strain; pupation rate; boronic acid, where present, at 1 mg/assay. Here is the method: Inhibitor efficacy was determined by treating larvae with diazinon over a range of concentrations, in the presence or absence of the compounds at constant concentrations, and comparing pupation rates.
(§1) Two strains of L. cuprina were used: 1) a laboratory reference drug-susceptible strain, LS, derived from collections in the Australian Capital Territory over 40 years ago, with no history of exposure to insecticides; and 2) a field-collected strain, Tara, resistant to diazinon and diflubenzuron (Levot, G. W. & Sales, N. New high level resistance to diflubenzuron detected in the Australian sheep blowfly, Lucilia cuprina (Wiedemann) (Diptera: Calliphoridae). Gen. Appl. Entomol. 31, 43-46 (2002)). The LcαE7 gene was sequenced in each of the strains. Briefly, genomic DNA was prepared from 20 adult female flies from each strain using the DNeasy Blood and Tissue kit (Qiagen). PCR was performed with primers specific to the LcαE7 gene, and the product was cloned into a pGEM-T EASY vector (Promega). Eight clones of the susceptible strain and 10 clones of the resistant strain were sequenced using M13 forward and reverse primers.
Each experiment utilized 50 larvae at each diazinon/malathion concentration. Experiments were replicated three times for diazinon, and twice for malathion. The insecticidal effects were defined by measuring the pupation rate. […] Compounds were also without diazinon or malathion at 1 mg per assay.

Assay [2] concerns the target T1, Gly137Asp LcαE7 (Gly137Asp variant of αE7 carboxylesterase) (Lucilia cuprina, UniProt Q25252, G137D).
T1 construct: GenBank number is of the wild-type parent
Nature of the assay: Inhibition of Gly137Asp αE7 (competition assay, hydrolysis of 4-nitrophenol butyrate), dose-response curves of FIG. 8. It is filed as biochemical. On the procedure: FIG. 8 presents dose-response curves for the inhibition of Glyl37Asp αE7. Inhibition of the hydrolysis of […] was determined for phenyl boronic acid (PBA) and compounds 1-5 and 3.1-3.12. Three (technical) replicate measurements of enzyme activity were performed for each concentration of boronic acid. The concentration of boronic acid required to inhibit 50% of activity (IC50) was determined by fitting a sigmoidal dose-response curve to plots of percentage inhibition. The curve was constrained to 0 (bottom) and 100% (top) inhibition with a variable Hill slope. […]
His6-tagged proteins were expressed in BL21(DE3) E. coli (Invitrogen) at 26° C. for 18 hours. Cells were collected by centrifugation, resuspended in lysis buffer (300 mM NaCl, 10 mM imidazole, 50 mM HEPES pH 7.5) and lysed by sonication. Cell debris was pelleted by centrifugation and the soluble fraction was loaded onto a HisTrap-HP Ni-Sepharose column (GE Healthcare). Bound protein was eluted with lysis buffer supplemented with 300 mM imidazole. Fractions containing the eluted protein were concentrated with a 30 kDa molecular mass cutoff centrifuge concentrator (Amicon) and loaded onto a HiLoad 26/60 Superdex-200 size-exclusion column (GE Healthcare) pre-equilibrated with 150 mM NaCl, 20 mM HEPES pH 7.5. Eluted fractions containing the monomeric protein were pooled for enzyme inhibition assays or crystallization. Protein concentration was determined by measuring the absorbance at 280 nm with an extinction coefficient calculated using the Protparam online server (Gasteiger, E. et al. Protein identification and analysis tools on the ExPASy server. Proteomics Protoc. Handb. 571-607 (2005). doi:10.1385/1-59259-890-0:571).
(§2) Inhibition of wild-type αE7 and the Gly137Asp αE7 variant was determined by a competition assay between the native-substrate analogue 4-nitrophenol butyrate (Sigma) and the boronic acid compounds. Initially, the Michalis constant (KM) with 4-nitrophenol butyrate was measured for both enzymes to determine an appropriate concentration of substrate for use in the competition assays. Formation of the 4-nitrophenolate product of hydrolysis was monitored at 405 nm in the presence of enzyme and eight different concentrations of substrate. 4-nitrophenol butyrate was prepared in methanol to 100 mM and serially diluted 1-in-2 to achieve concentrations from 100 mM to 0.8 mM. Enzyme stocks were prepared in 4 mg/ml bovine serum albumin (Sigma) to maintain enzyme stability. Reactions were prepared by pipetting 178 μl assay buffer (100 mM NaCl, 20 mM HEPES pH 7.5) and 2 μl substrate (final concentrations of 1000 to 8 μM) into 300 μl wells of a 96-well plate. The reaction was initiated by the addition of 20 μl enzyme (final concentration 2.5 nM for wildtype αE7 and 4 nM for Gly137Asp αE7). Product formation was monitored for four minutes at room temperature using an Epoch microplate spectrophotometer (BioTek) and the initial rates of ester hydrolysis were determined by linear regression using GraphPad Prism. The Michalis constant was determined by fitting the initial rates to the Michalis-Menton equation (FIG. 10).
Enzyme inhibition with the boronic acid compounds was determined by assaying the initial rate of 4-nitrophenol butyrate hydrolysis in the presence of either neat DMSO or the boronic acid compounds in DMSO. Compounds were prepared by serially diluting 1-in-3 an initial 10 mM stock to achieve concentrations from 10 mM to 2 nM. Reactions were prepared by pipetting 178 μl assay buffer supplemented with substrate to a final concentration equal to the KM of the enzyme (15 μM for wildtype αE7 and 250 μM for Gly137Asp αE7) into wells of a 96-well plate. 2 μl neat DMSO or 2 μl serially diluted inhibitor (final concentrations of 100 μM to 20 pM) were added to the wells. The reaction was initiated by the addition of 20 μl enzyme (final concentration 0.5 nM for wildtype αE7 and 10 nM for Glyl37Asp αE7). […]

For assay [3], the target named is T2, wildtype LcαE7 (Lucilia cuprina, UniProt Q25252).
T2 sequence (Q25252 1-570): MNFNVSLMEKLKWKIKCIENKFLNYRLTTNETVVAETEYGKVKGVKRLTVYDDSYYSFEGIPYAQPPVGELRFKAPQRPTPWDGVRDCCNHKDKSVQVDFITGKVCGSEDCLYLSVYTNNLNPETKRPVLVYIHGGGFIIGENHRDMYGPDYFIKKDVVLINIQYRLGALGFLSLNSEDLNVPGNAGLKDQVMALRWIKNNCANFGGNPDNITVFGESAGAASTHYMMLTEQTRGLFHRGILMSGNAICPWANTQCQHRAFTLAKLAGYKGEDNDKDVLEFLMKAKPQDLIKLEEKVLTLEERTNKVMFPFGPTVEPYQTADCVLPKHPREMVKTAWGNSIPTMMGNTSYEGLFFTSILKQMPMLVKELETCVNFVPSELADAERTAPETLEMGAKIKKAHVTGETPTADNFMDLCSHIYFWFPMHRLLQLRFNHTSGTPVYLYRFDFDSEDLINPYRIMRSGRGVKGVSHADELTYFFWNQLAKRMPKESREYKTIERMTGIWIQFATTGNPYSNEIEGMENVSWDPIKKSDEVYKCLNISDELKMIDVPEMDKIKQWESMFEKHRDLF
Description: Enzyme inhibition assay with 4-nitrophenol butyrate, wild-type. The class given is biochemical. On the procedure: Wild-type LcαE7 was heterologously expressed in Escherichia coli and purified using metal ion affinity and size exclusion chromatography. The potency of the boronic acids was determined by enzymatic assays of recombinant LcαE7 with the model carboxylester substrate 4-nitrophenol butyrate.
as §2
(§3) Enzyme inhibition with the boronic acid compounds was determined by assaying the initial rate of 4-nitrophenol butyrate hydrolysis in the presence of either neat DMSO or the boronic acid compounds in DMSO. Compounds were prepared by serially diluting 1-in-3 an initial 10 mM stock to achieve concentrations from 10 mM to 2 nM. Reactions were prepared by pipetting 178 μl assay buffer supplemented with substrate to a final concentration equal to the KM of the enzyme (15 μM for wildtype αE7 and 250 μM for Gly137Asp αE7) into wells of a 96-well plate. 2 μl neat DMSO or 2 μl serially diluted inhibitor (final concentrations of 100 μM to 20 pM) were added to the wells. The reaction was initiated by the addition of 20 μl enzyme (final concentration 0.5 nM for wildtype αE7 and 10 nM for Glyl37Asp αE7). Product formation was monitored for four minutes at room temperature and the initial rates of ester hydrolysis were determined by linear regression. To determine the concentration of boronic acid compounds required to inhibit 50% of esterase activity (IC50), a four-parameter sigmoidal dose-response curve was fitted to percentage inhibition using GraphPad Prism (FIGS. 7 and 8). Ki values were determined using the Cheng-Prusoff equation assuming competitive inhibition (Yung-Chi, C. & Prusoff W. H. Relationship between the inhibition constant (KI) and the concentration of inhibitor which causes 50 percent inhibition (150) of an enzymatic reaction. Biochem. Pharmacol. 22, 3099-3108 (1973)).

In assay [4] the target is T3, Gly137Asp LcαE7 (Lucilia cuprina, UniProt Q25252, G137D).
T3 sequence (Q25252 1-570 G137D): T2 sequence (Q25252 1-570) with G137D
Description: Enzyme inhibition assay with 4-nitrophenol butyrate, Gly137Asp variant. It is filed as biochemical. On the procedure:
as §2, §3
The two most common CBE-mediated insecticide resistance mechanisms involve increased protein expression, or mutation to gain new catalytic (OP-hydrolase) functions. Compounds 1 to 5 were tested against the resistance associated Gly137Asp variant of LcαE7^17,27 (Table 1). The Glyl37Asp mutation is located in the oxyanion hole and positions a new general base in the active site to catalyze dephosphorylation of the catalytic serine. Thus, compounds that inhibit WT LcαE7 as well as this common resistance associated Glyl37Asp variant would increase the efficacy of OPs by targeting both detoxification routes. Encouraged by the activity of the boronic acids 1 to 5, the compounds were tested against the Gly137Asp variant of LcαE7 (Table 1).

Assay [5] relates to Lucilia cuprina larvae, field strain Tara resistant to diazinon. Nature of the assay: Lucilia cuprina larval bioassay (pupation rate), field strain. The class given is in vivo.
Text: Diazinon resistance is typically associated with the Gly137Asp mutation/resistance allele. […] This is consistent with previous results showing that duplications of the chromosomal region containing αE7 have occurred, meaning that resistant strains now carry copies of both WT and Glyl37Asp LcαE7.
as §1
The effect of compounds 2, 3, 5, 3.9 and 3.10 on the development of blowfly larvae in the presence of diazinon/malathion was assessed using a bioassay system in which larvae were allowed to develop from the first instar stage until pupation on cotton wool impregnated with diazinon/malathion over a range of concentrations, in the presence or absence of the compounds at constant concentrations (Kotze, A. C. et al. Histone deacetylase enzymes as drug targets for the control of the sheep blowfly, Lucilia cuprina. Int. J. Parasitol. Drugs Drug Resist. 5, 201-208 (2015)). Each experiment utilized 50 larvae at each diazinon/malathion concentration. Experiments were replicated three times for diazinon, and twice for malathion. The insecticidal effects were defined by measuring the pupation rate. […] Compounds were also without diazinon or malathion at 1 mg per assay.

Assay [6] deals with Aedes aegypti CBE. Nature of the assay: Inhibition of insect CBEs, 4-NPB substrate. It is filed as biochemical. Particulars: n=3. On the procedure:
(§4) Assays were performed with 4-NPB as the substrate.

Assay [7] concerns the target Anopheles gambiae CBE. Description: Inhibition of insect CBEs, 4-NPB substrate. It is filed as biochemical. Particulars: n=3. Here is the method:
as §4

For assay [8], the target named is Culex quinquefasciatus CBE (Culex quinquefasciatus, UniProt Q23734). Nature of the assay: Inhibition of insect CBEs, 4-NPB substrate. The class given is biochemical. Particulars: n=3. On the procedure: as §4

In the case of `CCOC(=O)CC(SP(=S)(OC)OC)C(=O)OCC` (centres unmarked) [Mal alone, malathion, reference compound], the “Malathion dose response EC50” value in assay [1] was 2.06 μg/assay.
For orientation: IC50 means the concentration needed to halve the response being measured. The low end stands for greater potency in that assay, the high end for weaker potency in that assay. As a reminder, the Ki is the equilibrium dissociation constant of an inhibitor or competing ligand from its target. Higher therefore signals weaker binding. For `OB(O)c1cc(Cl)cc(N2CCCC2)c1` [Compound 3.2], in assay [2], the IC50 came to 400 nM. For the same molecule, the results for the Ki in assay [3] and in assay [4] were 0.35 nM and 210 nM, respectively.
For the molecule `CCOP(=S)(OCC)Oc1cc(C)nc(C(C)C)n1` [Dz alone, diazinon], the “RR = resistance ratio” value in assay [5] (EC50 with the field strain/EC50 for Dz alone for the laboratory strain) is reported as 2.86 ^#. In addition, the “diazinon EC50 for the field strain compared to the laboratory strain” value in assay [5] (absence of the boronic acids, fold higher) amounted to 2.9 fold. Moreover, the “Diazinon dose response EC50” value in assay [5] (field (Tara) strain, pupation rate, boronic acid, where present, at 1 mg/assay) turned out to be 2.29 μg/assay; in assay [1], 0.80 μg/assay.
`OB(O)c1cc2ccc(OCc3ccccc3)cc2[nH]1` [Compound C10]: the Ki in assay [6] was 10 nM; in assay [7], 80 nM; in assay [8], 190 nM.
For `OB(O)c1ccc(COc2ccc(Cl)c3ccccc23)cc1` [Compound C21], the values for the Ki in assay [6], in assay [7] and in assay [8] were 10000 nM, 200 nM and 140 nM, respectively.
Taken in the same sequence, the figures for `O=C(Nc1ccccc1Cl)c1cc(B(O)O)ccc1Cl` [Compound C2] were 37000 nM, 420 nM and 3600 nM.
